ChEMBL document CHEMBL1201862, “PubChem BioAssay data set” (2004)
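Growth conditions: 96-well plates. Treatment: test compound, 48 hours, 5 concentrations. Analysis: linear interpolation between bracketing concentrations; unreached endpoints set to highest concentration. GI50 = concentration required for 50% inhibition of growth.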 The source made the active and inactive calls. Cut-off read from the data, not from the text of the source: active = GI50 up to about 1.1 µM and inactive = higher.

Key:
Test in all cases: inhibition of tumour cell growth, NCI panel, 48 h
A498 = system: A498
BT-549 = system: BT-549
DU-145 = system: DU-145
HCT-116 = system: HCT-116
HOP-62 = system: HOP-62
HOP-92 = system: HOP-92
K562 = system: K562
KM12 = system: KM12
LOX IMVI = system: LOX IMVI
M14 = system: M14
NCI-H23 = system: NCI-H23
NCI-H522 = system: NCI-H522
SF-295 = system: SF-295
SK-MEL-5 = system: SK-MEL-5
SN12C = system: SN12C
T47D = system: T47D
U-251 = system: U-251
UACC-257 = system: UACC-257
Hs-578T = system: Hs-578T
RXF 393 = system: RXF 393

CN1C(=O)c2c(c3c4ccccc4n(C)c3c3c2c2ccccc2n3C)C1=O
GI50 (A498): > 100 µM (inactive)
GI50 (BT-549): > 100 µM (inactive)
GI50 (DU-145): > 100 µM (inactive)
GI50 (HCT-116): > 100 µM (inactive)
GI50 (HOP-62): > 100 µM (inactive)
GI50 (HOP-92): > 100 µM (inactive)
GI50 (K562): > 100 µM (inactive)
GI50 (KM12): > 100 µM (inactive)
GI50 (LOX IMVI): > 100 µM (inactive)
GI50 (M14): > 100 µM (inactive)
GI50 (NCI-H23): > 100 µM (inactive)
GI50 (NCI-H522): > 100 µM (inactive)
GI50 (SF-295): > 100 µM (inactive)
GI50 (SK-MEL-5): > 100 µM (inactive)
GI50 (SN12C): > 100 µM (inactive)
GI50 (T47D): > 100 µM (inactive)
GI50 (U-251): > 100 µM (inactive)
GI50 (UACC-257): > 100 µM (inactive)

COc1cccc(C(=O)O[C@H]2[C@@H]3[C@]4(OC(C)=O)CO[C@@H]4C[C@H](O)[C@@]3(C)C(=O)[C@H](OC(C)=O)C3=C(C)[C@@H](OC(=O)[C@H](O)[C@@H](NC(=O)OC(C)(C)C)c4ccco4)C[C@]2(O)C3(C)C)c1
GI50 (BT-549): 0.0556 µM (active)
GI50 (DU-145): < 0.00375 µM (active)
GI50 (HCT-116): < 0.00375 µM (active)
GI50 (HOP-62): < 0.00375 µM (active)
GI50 (Hs-578T): < 0.00375 µM (active)
GI50 (K562): < 0.00375 µM (active)
GI50 (KM12): < 0.00375 µM (active)
GI50 (LOX IMVI): < 0.00375 µM (active)
GI50 (M14): < 0.00375 µM (active)
GI50 (NCI-H23): 6.04 µM (inactive)
GI50 (NCI-H522): < 0.00375 µM (active)
GI50 (RXF 393): 0.00726 µM (active)
GI50 (SF-295): < 0.00375 µM (active)
GI50 (SK-MEL-5): < 0.00375 µM (active)
GI50 (SN12C): 0.064 µM (active)
GI50 (U-251): < 0.00375 µM (active)
GI50 (UACC-257): 21.3 µM (inactive)

O=C1Oc2ccccc2C(=O)/C1=C/NC(=S)NCc1ccccc1
GI50 (BT-549): 5.09 µM (inactive)
GI50 (DU-145): 93.1 µM (inactive)
GI50 (HCT-116): 53.8 µM (inactive)
GI50 (HOP-62): 57.9 µM (inactive)
GI50 (HOP-92): > 100 µM (inactive)
GI50 (KM12): 51.6 µM (inactive)
GI50 (LOX IMVI): 69.3 µM (inactive)
GI50 (M14): 75 µM (inactive)
GI50 (NCI-H23): 36.2 µM (inactive)
GI50 (SF-295): 55.6 µM (inactive)
GI50 (SK-MEL-5): 69.5 µM (inactive)
GI50 (SN12C): 56.5 µM (inactive)
GI50 (T47D): 81.7 µM (inactive)
GI50 (U-251): 57.3 µM (inactive)
GI50 (UACC-257): 90.6 µM (inactive)

CN1C(=O)N(C)C(O)C(Cl)(Br)C1=O (centres undefined)
GI50 (A498): > 100 µM (inactive)
GI50 (BT-549): > 100 µM (inactive)
GI50 (DU-145): > 100 µM (inactive)
GI50 (HCT-116): > 100 µM (inactive)
GI50 (Hs-578T): > 100 µM (inactive)
GI50 (K562): > 100 µM (inactive)
GI50 (KM12): > 100 µM (inactive)
GI50 (LOX IMVI): > 100 µM (inactive)
GI50 (M14): > 100 µM (inactive)
GI50 (NCI-H23): > 100 µM (inactive)
GI50 (NCI-H522): > 100 µM (inactive)
GI50 (RXF 393): > 100 µM (inactive)
GI50 (SF-295): > 100 µM (inactive)
GI50 (SK-MEL-5): > 100 µM (inactive)
GI50 (SN12C): > 100 µM (inactive)
GI50 (U-251): > 100 µM (inactive)
GI50 (UACC-257): > 100 µM (inactive)

Clc1cccc(-c2nc3cccc4c3n2Cc2ncccc2-4)c1
GI50 (A498): > 100 µM (inactive)
GI50 (BT-549): > 100 µM (inactive)
GI50 (DU-145): > 100 µM (inactive)
GI50 (HCT-116): > 100 µM (inactive)
GI50 (HOP-62): 36.1 µM (inactive)
GI50 (HOP-92): 44.6 µM (inactive)
GI50 (K562): > 100 µM (inactive)
GI50 (KM12): > 100 µM (inactive)
GI50 (M14): > 100 µM (inactive)
GI50 (NCI-H23): > 100 µM (inactive)
GI50 (NCI-H522): > 100 µM (inactive)
GI50 (RXF 393): 21.9 µM (inactive)
GI50 (SF-295): 41.6 µM (inactive)
GI50 (SN12C): > 100 µM (inactive)
GI50 (T47D): > 100 µM (inactive)
GI50 (U-251): 30.3 µM (inactive)
GI50 (UACC-257): > 100 µM (inactive)

ClCc1c(-c2ccccc2)nn(-c2ccccc2)c1CCl
GI50 (BT-549): > 10 µM (inactive)
GI50 (DU-145): 14 µM (inactive)
GI50 (HCT-116): 8.09 µM (inactive)
GI50 (HOP-92): 2.81 µM (inactive)
GI50 (KM12): 13.2 µM (inactive)
GI50 (M14): 15.4 µM (inactive)
GI50 (NCI-H23): 15.6 µM (inactive)
GI50 (NCI-H522): 0.165 µM (active)
GI50 (RXF 393): 12.4 µM (inactive)
GI50 (SF-295): 17.2 µM (inactive)
GI50 (SK-MEL-5): 12.4 µM (inactive)
GI50 (SN12C): 19.4 µM (inactive)
GI50 (T47D): 2 µM (inactive)
GI50 (U-251): 12.3 µM (inactive)
GI50 (UACC-257): 15.3 µM (inactive)
